The text below walks through data of US9364475B2, “Tablet formulation of a phosphatidylinositol 3-kinase inhibitor” (Sanofi, priority 2012, dated 2016).

Each structure is given as a SMILES string.

Data set [1] addresses PI3K (phosphatidylinositol 3-kinase) (Homo sapiens, UniProt P42336). Conditions: cited from earlier work.
The subject of data set [2] is PI3K signaling pathway. Conditions: cell lines in vitro and human xenograft tumor tissue in vivo; cited from earlier work.
In data set [3] the test system is human xenograft tumor models. As to conditions: multiple human xenograft tumor models; cited from earlier work. Background: A xenograft is tissue or cells of one species grown in another, often human tumour cells in immunodeficient mice.
Data set [4] can be described thus: stability comparison of polymorphic forms. The data set is classed as physicochemical. As to conditions: solid state, polymorphic forms of Compound (I).

PI3K (phosphatidylinositol 3-kinase), sequence (P42336 whole entry): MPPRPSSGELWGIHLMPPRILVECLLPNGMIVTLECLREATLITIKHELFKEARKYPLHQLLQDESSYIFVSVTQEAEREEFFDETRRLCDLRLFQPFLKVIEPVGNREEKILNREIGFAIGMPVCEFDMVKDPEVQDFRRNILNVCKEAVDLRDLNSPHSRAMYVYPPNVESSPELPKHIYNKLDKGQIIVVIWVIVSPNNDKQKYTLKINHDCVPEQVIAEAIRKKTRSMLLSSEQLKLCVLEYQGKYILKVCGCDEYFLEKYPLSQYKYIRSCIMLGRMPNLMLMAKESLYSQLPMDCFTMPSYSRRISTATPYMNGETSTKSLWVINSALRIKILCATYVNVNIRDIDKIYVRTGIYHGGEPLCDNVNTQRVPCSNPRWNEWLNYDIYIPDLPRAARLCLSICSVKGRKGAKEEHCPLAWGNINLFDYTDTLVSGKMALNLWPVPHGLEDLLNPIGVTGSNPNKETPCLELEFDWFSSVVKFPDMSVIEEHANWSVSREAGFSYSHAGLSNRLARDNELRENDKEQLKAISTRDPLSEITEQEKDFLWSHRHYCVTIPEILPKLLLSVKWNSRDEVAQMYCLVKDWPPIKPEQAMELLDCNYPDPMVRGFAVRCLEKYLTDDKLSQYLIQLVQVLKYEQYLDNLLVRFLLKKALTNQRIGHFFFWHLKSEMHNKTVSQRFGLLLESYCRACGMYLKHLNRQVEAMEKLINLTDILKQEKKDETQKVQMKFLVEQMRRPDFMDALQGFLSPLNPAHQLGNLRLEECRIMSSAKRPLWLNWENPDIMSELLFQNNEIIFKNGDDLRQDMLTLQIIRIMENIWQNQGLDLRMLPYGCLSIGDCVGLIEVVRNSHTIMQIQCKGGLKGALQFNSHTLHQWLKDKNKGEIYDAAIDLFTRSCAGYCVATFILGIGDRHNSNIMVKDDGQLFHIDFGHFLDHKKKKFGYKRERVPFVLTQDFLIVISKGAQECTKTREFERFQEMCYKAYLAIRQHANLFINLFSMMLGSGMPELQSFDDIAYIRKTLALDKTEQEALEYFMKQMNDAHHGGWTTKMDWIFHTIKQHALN
PI3K (phosphatidylinositol 3-kinase), sequence (P27986 whole entry partner): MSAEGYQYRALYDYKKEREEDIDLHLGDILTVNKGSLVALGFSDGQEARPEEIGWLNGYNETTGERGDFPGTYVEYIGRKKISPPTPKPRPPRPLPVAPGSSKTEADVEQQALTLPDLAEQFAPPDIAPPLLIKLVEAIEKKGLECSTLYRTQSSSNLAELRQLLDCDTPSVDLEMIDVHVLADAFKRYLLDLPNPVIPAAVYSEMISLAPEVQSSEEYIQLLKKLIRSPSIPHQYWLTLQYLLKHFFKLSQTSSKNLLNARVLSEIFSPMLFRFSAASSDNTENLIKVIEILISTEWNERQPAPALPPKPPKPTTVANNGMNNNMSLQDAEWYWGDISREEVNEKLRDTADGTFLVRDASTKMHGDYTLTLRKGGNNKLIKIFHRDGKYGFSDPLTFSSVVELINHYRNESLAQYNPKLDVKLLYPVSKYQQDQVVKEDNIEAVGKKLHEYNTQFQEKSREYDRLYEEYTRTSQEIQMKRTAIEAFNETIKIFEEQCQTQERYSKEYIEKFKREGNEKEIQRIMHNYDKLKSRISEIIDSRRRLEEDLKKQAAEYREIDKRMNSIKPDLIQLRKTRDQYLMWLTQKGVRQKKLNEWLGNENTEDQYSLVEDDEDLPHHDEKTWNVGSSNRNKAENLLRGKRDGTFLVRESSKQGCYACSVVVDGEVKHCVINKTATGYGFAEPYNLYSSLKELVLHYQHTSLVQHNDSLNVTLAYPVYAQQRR

For `COc1ccc(Cl)c(Nc2nc3ccccc3[nH]/c2=N\S(=O)(=O)c2cccc(NC(=O)C(C)(C)N)c2)c1` [Compound (I), N-(3-{[(2Z)-3-[(2-chloro-5-methoxyphenyl)amino]quinoxalin-2(1H)-ylidene]sulfamoyl}phenyl)-2-methylalaninamide], the “inhibition of PI3K” value in data set [1] was “potent and selective inhibitor”. Also, in data set [2], the “phosphorylation of multiple downstream components of the PI3K signaling pathway” value is “inhibits phosphorylation”. Further, the “tumor growth in human xenograft tumor models” value in data set [3] is “tumor growth inhibition and tumor regression”.

As to `COc1ccc(Cl)c(Nc2nc3ccccc3nc2NS(=O)(=O)c2cccc(NC(=O)C(C)(C)N)c2)c1` [Polymorph E, N-(3-{[(2Z)-3-[(2-chloro-5-methoxyphenyl)amino]quinoxalin-2(1H)-ylidene]sulfamoyl}phenyl)-2-methylalaninamide], in data set [4], the “stability among the polymorphic forms evaluated” value is recorded as “most stable polymorphic form”.
